In patent US9840498B2, “Substituted quinazolin-4-one derivatives” (NOVARTIS AG, priority 2013, dated 2017):

Target: PI 3-Kinase Gamma (Homo sapiens (Human), UniProt P48736)
Test: Cellular U937 AKT assay for PI 3-kinase gamma
Type: cell-based
Settings: U937 cells, MIP1α-stimulated AKT phosphorylation, read-out: Cell PI3K gamma IC50
Description: The U937 monocyte cell line is maintained in a basal medium of RPMI 1640 supplemented with 10% heat inactivated FCS, 100 U/ml Penicillin, 100 ug/ml streptomycin and 2 mM L-glutamine (Invitrogen). U937 suspension culture is maintained by seeding cells at a density of 0.125×10^6 cells per ml in fresh medium every three or four days. Cells are incubated at 37° C., 5% CO2. […] Before beginning the cell manipulations described below, the MSD (Meso Scale Discovery) assay plate is blocked by addition of 150 ul/well blocking buffer supplied and incubated with shaking for a minimum of one hour at room temperature. All steps of the assay must be performed quickly, with accurately timed incubation periods and observing temperature controls where indicated. […] Falcon tube, counted and centrifuged for eight minutes at 300 g at room temperature. Supernatant is aspirated, the cell pellet resuspended and washed once in HBSS (Hank's Balanced Salt Solution) by centrifugation for eight minutes at 300 g at room temperature. The cell pellet is resuspended in HBSS to a concentration of 4×10^6 per ml, and 100 μL of cell suspension added to each well of a flat-bottomed 96-well tissue culture plate. Assay plates are incubated for 1.5 hours at 37° C., 5% CO2 to allow background AKT phosphorylation to reduce before the compound stimulation step. […] Compound concentrations at this stage are 4-times the final concentration required in the assay plate. Cells are stimulated with compound or HBSS 0.8% DMSO by direct transfer of 50 ul/well from the compound dilution plate. The assay plate containing compound-treated cells is then incubated for 30 minutes at 37° C. A standard plate layout is used for all experiments. Compound-treated cells, in addition to positive control wells (“max MIP1α”), are stimulated with 50 μL per well of 40 ng/ml MIP1α (R&D Systems catalogue number 270-LD, lyophilized stock reconstituted to 50 μg/ml with PBS 0.1% BSA). Negative control wells (“min HBSS”), are stimulated with 50 μl/well of HBSS in the absence of MIP1α. […] Cells are incubated with MIP1α for 3 minutes, at 37° C., 5% CO2. After the three minute stimulation period, the assay plate is kept ice cold at all times. Assay plates are centrifuged for 2 minutes at 300 g, 4° C. and supernatant is removed by gently inverting, and then blotting the plate on tissue. Cells are then washed by gentle addition of 150 μL/well of ice cold HBSS and centrifugation at 300 g, for 5 minutes at 4° C. Supernatant is aspirated and the plate blotted as described above. The plate is placed on ice and cells are immediately treated with 35 μL per well of ice cold lysis buffer, prepared according to the kit instructions (per assay plate, to 5 ml of Tris lysis buffer add 100 μl of 50× protease inhibitor solution and 50 μl of each 100× phosphatase inhibitor solutions I and II). Plates are incubated on ice for 20 minutes before centrifugation at 841 g for 5 minutes, 4° C. Block buffer is aspirated from the MSD plate, and the plate washed four times with 300 μl/well Tris wash buffer. 25 μL of cell lysate is then transferred from the assay plate to the washed MSD plate which is sealed and incubated at room temperature for one hour with shaking. The plate is washed four times with 300 μL per well of Tris wash buffer before addition of 25 μL per well of sulfo-tag anti-total AKT/pAKT detection antibody (60 μl of 50× antibody stock is diluted in 1 ml block buffer mixed with 2 ml wash buffer) and incubated at room temperature for one hour with shaking. The plate is washed four times with 300 μl per well of Tris wash buffer and 150 μl per well of Read buffer is added, taking care to avoid the introduction of bubbles. The plate is immediately read using an MSD SECTOR Imager 6000. Results are exported in Excel and the percentage of phosphorylated AKT is calculated using the equation: % Phosphoprotein=((2*Phospho signal)/(Phospho signal+Total signal))*100. […]

PI 3-Kinase Gamma, sequence (P48736 whole entry): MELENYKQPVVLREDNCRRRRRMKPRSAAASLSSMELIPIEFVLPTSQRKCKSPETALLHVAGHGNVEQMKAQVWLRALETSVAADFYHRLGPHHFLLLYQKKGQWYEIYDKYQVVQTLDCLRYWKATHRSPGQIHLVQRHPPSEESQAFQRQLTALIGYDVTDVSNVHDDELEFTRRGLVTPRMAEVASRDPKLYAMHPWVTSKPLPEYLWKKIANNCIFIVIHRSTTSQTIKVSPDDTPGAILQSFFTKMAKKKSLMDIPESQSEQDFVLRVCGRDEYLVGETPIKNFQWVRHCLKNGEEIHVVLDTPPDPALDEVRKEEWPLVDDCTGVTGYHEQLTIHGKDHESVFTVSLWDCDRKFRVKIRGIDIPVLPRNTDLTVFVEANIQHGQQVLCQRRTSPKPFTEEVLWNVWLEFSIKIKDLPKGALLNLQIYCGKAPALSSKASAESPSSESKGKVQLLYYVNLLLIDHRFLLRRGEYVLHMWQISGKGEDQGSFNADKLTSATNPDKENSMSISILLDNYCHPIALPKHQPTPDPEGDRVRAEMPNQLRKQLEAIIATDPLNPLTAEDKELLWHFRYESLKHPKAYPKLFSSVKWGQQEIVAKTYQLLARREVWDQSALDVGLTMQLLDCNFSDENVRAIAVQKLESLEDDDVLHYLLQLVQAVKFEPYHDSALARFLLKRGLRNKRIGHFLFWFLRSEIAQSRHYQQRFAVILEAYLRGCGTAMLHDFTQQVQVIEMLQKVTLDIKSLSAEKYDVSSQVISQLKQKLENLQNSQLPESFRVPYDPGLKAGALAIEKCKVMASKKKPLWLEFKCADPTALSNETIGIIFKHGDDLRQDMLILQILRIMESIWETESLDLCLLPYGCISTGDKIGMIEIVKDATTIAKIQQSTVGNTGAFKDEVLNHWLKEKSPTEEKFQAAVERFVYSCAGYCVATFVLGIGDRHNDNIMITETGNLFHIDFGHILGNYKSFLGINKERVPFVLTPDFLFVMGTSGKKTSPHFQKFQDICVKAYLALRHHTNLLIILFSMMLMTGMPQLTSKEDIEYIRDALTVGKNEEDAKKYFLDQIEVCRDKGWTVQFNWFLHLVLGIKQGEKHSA

IC50	SMILES
0.009 µM	Cc1nc(N)nc(N2C[C@@H](O)C[C@H]2c2nc3cccc(-c4cccnc4)c3c(=O)n2-c2ccccc2)c1C#N [Example 24, 2-Amino-4-((2S,4S)-4-hydroxy-2-(4-oxo-3-phenyl-5-(pyridin-3-yl)-3,4-dihydroquinazolin-2-yl)pyrrolidin-1-yl)-6-methylpyrimidine-5-carbonitrile]
0.049 µM	COc1cncc(-c2cccc3nc([C@@H]4C[C@H](O)CN4c4nc(N)nc(C)c4C#N)n(-c4ccccc4)c(=O)c23)c1 [Example 25, 2-Amino-4-((2S,4S)-4-hydroxy-2-(5-(5-methoxypyridin-3-yl)-4-oxo-3-phenyl-3,4-dihydroquinazolin-2-yl)pyrrolidin-1-yl)-6-methylpyrimidine-5-carbonitrile]
0.17 µM	Cc1nc(N)nc(N2C[C@@H](O)C[C@H]2c2nc3cccc(-c4cncnc4)c3c(=O)n2-c2ccccc2)c1C#N [Example 26, 2-Amino-4-((2S,4S)-4-hydroxy-2-(4-oxo-3-phenyl-5-(pyrimidin-5-yl)-3,4-dihydroquinazolin-2-yl)pyrrolidin-1-yl)-6-methylpyrimidine-5-carbonitrile]
0.063 µM	COc1ccc(-c2cccc3nc([C@@H]4C[C@H](O)CN4c4nc(N)nc(C)c4C#N)n(-c4ccccc4)c(=O)c23)cn1 [Example 27, 2-Amino-4-((2S,4S)-4-hydroxy-2-(5-(6-methoxypyridin-3-yl)-4-oxo-3-phenyl-3,4-dihydroquinazolin-2-yl)pyrrolidin-1-yl)-6-methylpyrimidine-5-carbonitrile]
0.12 µM	Cc1nc(N)nc(N2C[C@@H](O)C[C@H]2c2nc3cccc(-c4cnn(CCO)c4)c3c(=O)n2-c2ccccc2)c1C#N [Example 28, 2-Amino-4-((2S,4S)-4-hydroxy-2-(5-(1-(2-hydroxyethyl)-1H-pyrazol-4-yl)-4-oxo-3-phenyl-3,4-dihydroquinazolin-2-yl)pyrrolidin-1-yl)-6-methylpyrimidine-5-carbonitrile]
0.038 µM	CCOc1ncc(-c2c(F)ccc3nc([C@@H]4C[C@H](O)CN4c4nc(N)nc(C)c4C#N)n(-c4ccccc4)c(=O)c23)cn1 [Example 29, 2-Amino-4-((2S,4S)-2-(5-(2-ethoxypyrimidin-5-yl)-6-fluoro-4-oxo-3-phenyl-3,4-dihydroquinazolin-2-yl)-4-hydroxypyrrolidin-1-yl)-6-methylpyrimidine-5-carbonitrile]
0.011 µM	Cc1nc(N)nc(N2C[C@@H](F)C[C@H]2c2nc3cccc(-c4cnn(C)c4)c3c(=O)n2-c2ccccc2)c1C#N [Example 30, 2-Amino-4-((2S,4S)-4-fluoro-2-(5-(1-methyl-1H-pyrazol-4-yl)-4-oxo-3-phenyl-3,4-dihydroquinazolin-2-yl)pyrrolidin-1-yl)-6-methylpyrimidine-5-carbonitrile]
0.24 µM	Cc1nc(N)nc(N2C[C@@H](O)C[C@H]2c2nc3ccc(F)c(-c4cn(C)cn4)c3c(=O)n2-c2ccccc2)c1C#N [Example 31, 2-Amino-4-((2S,4S)-2-(6-fluoro-5-(1-methyl-1H-imidazol-4-yl)-4-oxo-3-phenyl-3,4-dihydroquinazolin-2-yl)-4-hydroxypyrrolidin-1-yl)-6-methylpyrimidine-5-carbonitrile]
0.72 µM	CCOc1ncc(-c2cccc3nc([C@@H]4CCCN4c4nc(N)nc(C)c4C#N)n(-c4ccccc4)c(=O)c23)cn1 [Example 32, (S)-2-Amino-4-(2-(5-(2-ethoxypyrimidin-5-yl)-4-oxo-3-phenyl-3,4-dihydroquinazolin-2-yl)pyrrolidin-1-yl)-6-methylpyrimidine-5-carbonitrile]
0.12 µM	N#Cc1c(N)ncnc1N1CCC[C@H]1c1nc2cccc(C#CCO)c2c(=O)n1-c1ccccc1 [Example 33, (S)-4-Amino-6-(2-(5-(3-hydroxyprop-1-yn-1-yl)-4-oxo-3-phenyl-3,4-dihydroquinazolin-2-yl)pyrrolidin-1-yl)pyrimidine-5-carbonitrile]
